Where two headings read alike, the source gives them in different places.

The subject of test [1] is human breast cancer (MDA-231) cells. The test is described as follows: XTT cell proliferation assay, first set of experiments. The format is cell-based. The settings on record: 24 h. The procedure:
(§1) The MDA-231 and B16F10 cells were obtained from ATCC (USA). […] The experiments were performed in 35 mm Petri dishes (NUNC, USA). Cisplatin and Taxol were obtained from Sigma (USA). A cell proliferation assay kit was obtained from Biological Industries Ltd., Israel. […] XTT is cleaved to formazan (absorbs at 450-500 nm) by the “succinate-tetrazolium reductase” system of the respiratory chain of the mitochondria and is active only in viable cells. Therefore, the amount of formazan dye (A450 nm) formed directly correlates to the number of metabolically active cells in culture. The XTT assay is widely used for the measurement of cell proliferation in response to growth factors, cytokines, mitogens, nutrients, anti-cancer drugs and physiological mediators.) The media in the Petri dish was replaced by fresh media (3 ml with or without Taxol or Cisplatin), thermo-couples were placed at the center, and the dish cover was replaced by one with attached electrodes. Cell samples without […] treatment were placed in CO2 incubator at 37° C. for 24 hours, while […] treated samples were placed in CO2 incubator at 25° C., also for 24 hours. Final incubation temperature of […] treated samples was 37±0.7° C. due to heating induced by TTFields (as measured by inserted thermo-couples). […] The rate of cell proliferation was calculated as a ratio of the final cell number to the initial cell number (OD1/OD0). […] For those samples that were subjected to TTFields, two-directional 200 kHz sinusoidal TTFields were generated by an appropriate waveform generator and an amplifier. The output of the amplifier was switched between two pairs of outputs every 250 mSec, with the outputs connected to two pairs of electrodes, insulated by a high dielectric constant ceramic (e.g., PMN-PT, EDO Corporation, Utah), positioned in the Petri dish as depicted in FIG. 1. Field intensity in the medium surrounding the cells was measured to be approximately 7 V/cm.
On the technique in general: Tetrazolium dyes change colour on reduction, which living cells bring about.

The test system of test [2] is mouse melanoma (B16F10) cells. The test is described as above. Particulars: 24 h. The format is cell-based. The procedure:
as §1

For test [3], the system named is human non-small cell lung cancer (H1299) cells. It counts as cell-based.

Regarding `N.N.[Cl][Pt][Cl]` [Cisplatin, cis-diamminedichloroplatinum(II)], in test [1] (Cisplatin 15 μM + TTFields 200 kHz approx. 7 V/cm), the “cell proliferation under combined treatment” value is reported as “complete cell proliferation arrest”. For the same molecule, the “reduced cell proliferation as compared with the control” value in test [1] (Cisplatin 15 μM alone) turned out to be 63%. For the same molecule, the “cell proliferation, drug alone compared with drug + TTFields” value in test [2] (Cisplatin 15 μM) is given as “reduced cell proliferation to a lesser extent”.

Consider `O=P1(N(CCCl)CCCl)NCCCO1` (centres unmarked) [Cyclophosphamide], for which the “effectiveness of combined treatment” value with MDA-MB-231 cells (30 mM Cyclophosphamide + 1.75 V/cm TTFields applied for 1 hour) was “not effective”; in the test with MDA-MB-231 cells (30 mM Cyclophosphamide + 1.75 V/cm TTFields applied for 6 hours or more) it was “fully effective”.

Turning to `CC(=O)O[C@H]1C(=O)[C@@]2(C)[C@H]([C@H](OC(=O)c3ccccc3)[C@]3(O)C[C@H](OC(=O)[C@H](O)[C@@H](NC(=O)c4ccccc4)c4ccccc4)C(C)=C1C3(C)C)[C@]1(OC(C)=O)CO[C@@H]1C[C@@H]2O` [Paclitaxel], the “Combination index CI40” value in test [3] (Paclitaxel + TTFields 1.25 V/cm) came to 0.73; in test [3] (Paclitaxel + TTFields 1.75 V/cm), 0.98. Moreover, the “effect on cell proliferation rate, combination versus drug alone” value in test [3] (Paclitaxel + TTFields 1.25 V/cm and 1.75 V/cm, all concentrations studied) was “significant additional decrease in cell proliferation rate”. The “induction of cell death” value is “not observed” in test [3] (Paclitaxel alone at concentrations up to 500 nM) and “cell death is induced” in test [3] (higher concentrations of Paclitaxel in combination with TTFields). For the same molecule, in test [3] (Paclitaxel alone, concentrations above 200 nM, 24 h), the “cell proliferation rate (% of control)” value was determined as 55%. For the same molecule, in test [1] (Taxol 0.05 μM + TTFields 200 kHz approx. 7 V/cm), the “cells died under the influence of the combined treatment” value is given as “about 40%”. Besides, the “reduced cell proliferation as compared with the control” value in test [1] (Taxol 0.05 μM alone) is given as 70%. The “cell proliferation, drug alone compared with drug + TTFields” value in test [2] (Taxol 0.05 μM) is “reduced cell proliferation to a lesser extent”.

Source of the values: US8406870B2, “Treating cancer using electromagnetic fields in combination with other treatment regimens” (priority 2006, dated 2013).
